Broadly, the pIC50 is the negative decadic logarithm of the IC50, by convention in mol/L. Lower therefore signals a large IC50.

pIC50: −log10 of the molar value.

This test concerns the target T1, Probable integral membrane cytochrome D ubiquinol oxidase (Subunit II) CydB (Cytochrome BD-I oxidase subunit II) (Mycobacterium tuberculosis (strain ATCC 25618 / H37Rv), UniProt O06139).
T1 sequence (O06139 whole entry): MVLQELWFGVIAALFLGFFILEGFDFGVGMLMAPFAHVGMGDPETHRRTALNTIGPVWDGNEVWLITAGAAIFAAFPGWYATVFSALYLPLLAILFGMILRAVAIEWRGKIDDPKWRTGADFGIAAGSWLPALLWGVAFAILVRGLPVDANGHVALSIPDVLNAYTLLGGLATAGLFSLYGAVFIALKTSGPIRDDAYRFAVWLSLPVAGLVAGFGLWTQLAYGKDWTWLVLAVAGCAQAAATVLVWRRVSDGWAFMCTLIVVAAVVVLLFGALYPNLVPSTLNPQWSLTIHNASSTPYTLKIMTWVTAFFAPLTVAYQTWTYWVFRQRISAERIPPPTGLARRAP
As to the kind of experiment: Mtb cytochrome bd inhibition assay.
The molecule `Cc1c(-c2ccc(Cc3ccccc3)cc2)[nH]c2ccccc2c1=O` [US10799494, Compound CK-2-88] had a pIC50 of 7.70.

The molecule `Cc1c(-c2ccc(Oc3ccc(F)cc3)nc2)[nH]c2ccccc2c1=O` [US10799494, Compound CK-3-14] showed a negative logarithm of the IC50 (pIC50) of 4.97. This pIC50 lies 2.73 log units lower than the previous one.

Molecule `Cc1c(-c2ccc(Oc3ccc(OC(F)(F)F)cc3)nc2)[nH]c2ccccc2c1=O` [US10799494, Compound CK-3-22] showed a pIC50 of 6.85. Against the preceding molecule, the pIC50 is 1.88 log units higher.

In turn, `COc1c(C)c(-c2ccc(Cc3ccccc3)cc2)nc2ccccc12` [US10799494, Compound CK-3-23] showed a pIC50 of 5.44. Against the preceding molecule, the pIC50 is 1.41 log units lower.

Consider `CCOC(=O)c1c(-c2ccc(Cc3ccc(OC(F)(F)F)cc3)cc2)[nH]c2ccccc2c1=O` [US10799494, Compound GN-1710], for which the pIC50 is 6.60.

`Cc1c(-c2ccc(N3CCCCC3)cc2)[nH]c2cc(F)cc(F)c2c1=O` [US10799494, Compound MTD-403]: the pIC50 is 6.57.

As for `Cc1c(-c2ccc(-c3ccc(C(F)(F)F)nc3)nc2)[nH]c2ccccc2c1=O` [US10799494, Compound PG-128], the pIC50 was 5.35.

On to `Cc1[nH]c2ccccc2c(=O)c1-c1ccc(Oc2ccc(OC(F)(F)F)cc2)cc1` [US10799494, Compound PG-203], for which the pIC50 is 7.15. Against the preceding molecule, the pIC50 is 1.80 log units higher.

`O=c1cc(-c2ccc(Cc3ccc(OC(F)(F)F)cc3)cc2)[nH]c2ccccc12` [US10799494, Compound RKA-70] gave a pIC50 of 6.12.

`O=c1cc(-c2ccc(Cc3ccc(OC(F)(F)F)cc3)cc2)n(O)c2ccccc12` [US10799494, Compound RKA-73] had a pIC50 of 6.51.

`COc1ccc2c(=O)c(C)c(-c3ccc(Oc4ccc(OC(F)(F)F)cc4)nc3)[nH]c2c1` [US10799494, Compound RKA-259]: the negative logarithm of the IC50 (pIC50) was 5.44.

The molecule `Cc1c(-c2ccc(N3CCCCC3)cc2)[nH]c2ccccc2c1=O` [US10799494, Compound RKA-307] gave a pIC50 of 6.36.

`COc1ccc2c(=O)c(C)c(-c3ccc(N4CCCCC4)cc3)[nH]c2c1` [US10799494, Compound RKA-310]: the pIC50 was 5.85.

The molecule `Cc1c(-c2ccc(-c3ccc(OC(F)(F)F)cc3)nc2)[nH]c2ccccc2c1=O` [US10799494, Compound SL-2-25] had a pIC50 of 6.54.

In turn, `O=c1cc(-c2cnn(Cc3ccc(OC(F)(F)F)cc3)c2)[nH]c2ccccc12` [US10799494, Compound WDH-1W-5] had a negative-log IC50 (pIC50) of 4.80.

Regarding `Cc1c(-c2cnn(Cc3ccc(OC(F)(F)F)cc3)c2)[nH]c2ccccc2c1=O` [US10799494, Compound WDH-2A-9], the negative-log IC50 (pIC50) was 5.19. This pIC50 is 0.39 log units higher than that of the molecule before.

Regarding `Cc1c(-c2ccc(-c3ccc(C(F)(F)F)cc3)nc2)[nH]c2ccccc2c1=O` [US10799494, Example RKA 142], the negative-log IC50 (pIC50) is 5.69.

`CC(C)c1c(-c2cnn(Cc3ccc(OC(F)(F)F)cc3)c2)[nH]c2ccccc2c1=O` [US10799494, Example WDH-2G-6] showed a pIC50 of 7.09. Against the preceding molecule, the pIC50 is 1.40 log units higher.

The values above are taken from BindingDB's records for patent US10799494 (2020).
